“Also recorded” adds a separate entry of the source.
What was measured:
OVCAR4 = test: MTT cytotoxicity, ovarian cancer cell line OVCAR4; type: cell-based
Protocol: (§1) Finally, a comparison study of the cytotoxicity of Re-Phen and phenformin in a panel of ovarian cancer cell lines by MTT assay after a 72 hour incubation period was conducted. Ovarian cells were seeded at 5000 cells/well in 96-well plates overnight, and treated with Re-Phen or phenformin in different concentrations (from 4.57×10^−4 mM to 1.0 mM in 3-fold increase) at 37° C. for 72 hours. Cell viability was measured using the MTT assay. The absorption at 590 nm was measured at microplate reader (SpectraMax, Molecular Device, San Diego, CA) to quantify cell numbers. The proportion of cells was normalized to that of untreated cells and expressed as mean±standard error of the mean (SEM) (n=5-6). The resulting reduced viability with half-maximal inhibitory concentration (IC50) values of mM were calculated by a sigmoidal dose-response (variable slope) curve-fitting using GraphPad Prism software. The data are shown in FIG. 19A (Re-Phen) and FIG. 19B (phenformin). […] In fact, Re-Phen is shown to display >2,000-fold and >5,000-fold higher cytotoxicity against OVACAR-8 and SKOV3 (Table 2) human ovarian cancer cell lines, respectively.

AMPK = AMPK and AMPK phosphoprotein western blotting; type: cell-based; details: 24 hours
Protocol: R-actin was used as a loading control. Cells were treated with phenformin or Re-Phenformin overnight at the indicated concentrations for 24 hours.
AMPK is a key enzyme that becomes activated under nutrient stress. Annexin V/PI double staining kit was used to detected cell death in flow cytofluorimetric analyses. […] In Kras* cell line, cells died largely of necrosis; in MiaPaca-2 cell line, cells died mostly of apoptosis.

A2789-cp20 = test: MTT cytotoxicity, ovarian cancer cell line A2789-cp20; type: cell-based; details: 72 hours
Protocol: as §1

[1] = test system: MiaPaca-2 and Kras* cells; test: NADH-to-total NAD (NADt) ratio, colorimetric kit; type: cell-based; details: 100 μM, 3 hours or 12 hours
Protocol: Data are presented as mean±SD (n=3). *p<0.05; ***p<0.001. Vehicle (DMSO) treated cells were as controls.
Following, PDAC cells were used to measure NADH-to-total NAD (NADt) ratios. NADH-to-total NAD (NADt) ratios were measured using a colorimetric kit (Biovision, Milpitas, CA). Briefly, cells were treated for different time periods as indicated and total NAD (NADt, NAD+NADH) was extracted following manufacturer provided protocol. For each of the extracted samples, half of the sample was heated at 60° C. for 30 minutes to decompose NAD+ while keeping NADH intact. Total NAD+ and NADH level was measured without the heating steps and in the presence of NAD cycling enzyme. The ratio of NADH to NADt were calculated on absorbance measured at 450 nm with a microplate reader (SpectraMax, Molecular Device, San Diego, CA). Cells treated with the same amount of DMSO used to prepare 100 μM phenformin or Re-Phen were used as controls.

PDAC cells [2] = test: JC-10 mitochondrial membrane potential assay; type: cell-based; details: JC-10 microplate assay kit
Protocol: The fluorescent intensities for J-aggregates (Ex/Em=540/590 nm) and monomeric forms (Ex/Em=490/525 nm) of JC-10 were measured with a microplate reader. Fluorescence intensity ratio measured at 525 nm/590 nm represents the change of mitochondrial membrane potential. Data are presented as mean±SD (n=4). *p<0.05; **p<0.01; ***p<0.001.
Both Re-Phen and phenformin altered the mitochondrial functions and metabolic state of PDAC cells. The fluorescent intensities for both monomeric forms (Ex/Em=490/525 nm) and J-aggregates (Ex/Em=540/590 nm) of JC-10 change upon mitochondrial membrane polarization. Thus, an increase in the ratio of fluorescence intensities measured at 525 nm (monomeric form) over 590 nm (aggregates) represents a decrease in mitochondrial membrane potential.

MiaPaca-2 cells = test: Untargeted IC-MS metabolomics; type: cell-based
Protocol: Samples were measured by untargeted IC-MS after 12 hours of treatment (n=3).
Metabolites were extracted from lysed cells and samples were measured by untargeted IC-MS (n=3). Data are expressed as mean±SD (n=3). *p<0.05 compared to phenformin.
Following, untargeted IC-MS was used to analyze changes in cellular metabolites.

BXPC-3 = test: MTT cytotoxicity, pancreatic cancer cell line BXPC-3; type: cell-based
Protocol: To determine cytotoxicity of Re-Phen and Phenformin, different cell lines were exposed to different concentrations of the compounds and their viabilities were followed over time. Pancreatic cells were seeded in 96-well plates (5000 cells/well) overnight, and treated with Re-Phen (FIG. 13A) or phenformin (FIG. 13B) in concentrations ranging from 4.57×10−4 mM to 1.0 mM at 37° C. for 72 h. Cell viability was measured using the MTT assay. The absorption at 590 nm was measured with a microplate reader (SpectraMax, Molecular Device, San Diego, CA) to quantify cell numbers. The proportion of cells was normalized to that of untreated cells and expressed as mean±standard error of the mean (SEM) (n=6). The half-maximal inhibitory concentration (IC50) values were calculated by a sigmoidal dose-response (variable slope) curve-fitting using GraphPad Prism software.

PDAC cells [3] = test: Seahorse mito-stress test (oxygen consumption rate); type: cell-based; details: 4-hour treatments, Seahorse XF24e
PDAC cells [4] = test: DCFDA cellular ROS detection assay; type: cell-based; details: for level of reactive oxygen species (ROS): DCFDA assay, FIG. 9B
Protocol: Decreased fluorescence intensity measured at Ex/Em 485/535 nm indicated decreased level of ROS. Data are expressed as mean±SD (n=4). ***p<0.001 compared to vehicle (DMSO) control.
The production of intracellular reactive oxygen species (ROS) after treatments with Re-Phen and phenformin in PDAC cells was also measured (FIG. 16). DCFDA Cellular ROS Detection AssayKit (Abcam, Cambridge, MA) was used to measure Intracellular reactive oxygen species (ROS). Briefly, after seeded into 96-well plates at a cell density of 2.5×10^4 cells per well overnight, cell monolayers were washed and incubated for 45 min at 37° C. in the dark in the presence of 25 μM DCFDA diluted in serum-free adhesion medium without phenol red according to the manufacturer's instructions. Cells were then treated with compounds as indicated for 1 hour. End-point fluorescence was measured in a fluorescence microplate reader (Syneregy H1, Bio-Tek, Winooski, VT) at 485 nm excitation and 535 nm emission wavelengths.

[5] = log P from octanol and PBS pH 7.4; type: physicochemical

logP ([5]; pH 7.4)	SMILES	IC50 (OVCAR4; Homo sapiens, OVCAR-4, 72 hours) [µM]	AMPK activation (AMPK)	IC50 (A2789-cp20) [µM]	ratio of NADH to total NADt [1]	mitochondrial membrane potential (PDAC cells [2])	pyrimidine nucleotide pool (MiaPaca-2 cells)	TCA cycle: level of succinate and aspartate versus vehicle (MiaPaca-2 cells; 12 h)	IC50 (BXPC-3; Homo sapiens, BXPC-3, 72 h) [µM]	mitochondria respiration (OCR) (PDAC cells [3])	level of reactive oxygen species (ROS) (PDAC cells [4])	IC50 (OVCAR4; 72 hours) [µM]	purine nucleotide pool compared to phenformin (MiaPaca-2 cells)	level of 3-phosphoglycerate (3-PG) (MiaPaca-2 cells; 100 μM, 12 h)	level of phosphoenolpyruvate (PEP) (MiaPaca-2 cells; 100 μM, 12 h)	level of glutathione (GSH) (MiaPaca-2 cells; 200 μM, 12 hours)	IC50 (BXPC-3; 72 h) [µM]	ROS levels in MiaPaca-2 cells (PDAC cells [4]; MiaPaca-2 cells, DCFDA, treated 1 hour, FIG. 16)	log P ([5]; octanol and phosphate-buffered saline (PBS) at pH 7.4)
-0.72 ± 0.02	[H]/N=C(/N)N/C(=N/[H])NCCc1ccccc1 [Phenformin, N-phenylethyl biguanide, reference compound]	2430	activated AMPK	100	increased the ratio of NADH to total NADt; also recorded: significantly increased NADH/NADt ratio	reduced mitochondrial membrane potential	decreased pyrimidine nucleotide pool	reduced level of succinate and aspartate	1100	suppressed mitochondria respiration	increased the level of ROS								
	N=C(N)NC(=N)NCCc1ccccc1.[C-]#[O+].[C-]#[O+].[C-]#[O+].[Re+] [Re-Phen]		activated AMPK	260	increased the ratio of NADH to total NADt; also recorded: significantly increased NADH/NADt ratio	reduced mitochondrial membrane potential	decreased pyrimidine nucleotide pool	reduced level of succinate and aspartate		suppressed mitochondria respiration	reduced the level of reactive oxygen species (ROS)	390	increased purine nucleotide pool	increased the level of 3-phosphoglycerate (3-PG) more than phenformin did	suppressed the level of phosphoenolpyruvate (PEP)	increased the level of glutathione (GSH)	340	reduced ROS levels	1.07±0.08

— patent US20240299595A1, “CANCER THERANOSTIC COMPOSITIONS COMPRISING BIGUANIDE COMPLEXES OF GROUP 7 TRANSITION METALS AND USES THEREOF” (BOARD OF REGENTS, THE UNIVERSITY OF TEXAS SYSTEM, priority 2021, published 2024)
